ChEMBL document CHEMBL1268998, “Detection of Rap1A as a yessotoxin binding protein from blood cell membranes” (Bioorg Med Chem Lett, 2010)

Key:
Assay type in all cases: cell membranes
[1] = molecular target: T1, Ras-related protein Rap-1A (Homo sapiens, UniProt P62834); test: Binding affinity to RAP1A in human RBC membrane by surface plasmon resonance analysis with inverted configuration
T1 sequence (P62834 whole entry): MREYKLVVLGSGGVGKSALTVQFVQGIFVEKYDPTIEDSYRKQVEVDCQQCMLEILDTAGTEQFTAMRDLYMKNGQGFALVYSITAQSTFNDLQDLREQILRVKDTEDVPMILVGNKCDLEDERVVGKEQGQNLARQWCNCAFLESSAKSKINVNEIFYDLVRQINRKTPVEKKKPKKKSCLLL

[2] = molecular target: T1, Ras-related protein Rap-1A; test: Binding affinity to RAP1A in human RBC membrane by Western blot analysis
[3] = molecular target: T1, Ras-related protein Rap-1A; test: Binding affinity to RAP1A in human RBC membrane by surface plasmon resonance analysis

SMILES | Kd [1] [µM] | Kd [2] [µM] | Kd [3] [µM]
C=CCC(=C)/C=C/[C@@](C)(O)[C@H]1O[C@@H]2C[C@@H]3O[C@@H]4C[C@@H]5O[C@@H]6C[C@@H]7O[C@@H]8C[C@@H]9O[C@@H]%10C[C@@H]%11O[C@](C)(CCO)[C@@H](O)C[C@H]%11O[C@H]%10C[C@H]9O[C@H]8CC[C@@]7(C)O[C@@]6(C)CC[C@H](C)[C@H]5O[C@H]4[C@@H](O)[C@@]3(C)O[C@H]2CC1=C [DESULFO-YESSOTOXIN] | 0.5 |  | 
C=CCC(=C)/C=C/[C@@](C)(O)[C@H]1O[C@@H]2C[C@@H]3O[C@@H]4C[C@@H]5O[C@@H]6C[C@@H]7O[C@@H]8C[C@@H]9O[C@@H]%10C[C@@H]%11O[C@](C)(CCOS(=O)(=O)O)[C@@H](OS(=O)(=O)O)C[C@H]%11O[C@H]%10C[C@H]9O[C@H]8CC[C@@]7(C)O[C@@]6(C)CC[C@H](C)[C@H]5O[C@H]4C[C@@]3(C)O[C@H]2CC1=C [YESSOTOXIN] |  | 4 | 4
